Values of other authors, collected in patent EP0417819A1, “Psycho-pharmacological peptides” (AKZO N.V., priority 1989, dated 1991).
Entries after “also recorded” stand apart in the source; their conditions may differ.

system: extinction of the (active) avoidance behaviour of rats; settings: pole climbing test, state of the art, result in words

| Substance | extinction of the (active) avoidance behaviour |
| --- | --- |
| y-endorphin (YGGFMTSEKSQTPLVTL; Beta-endorphin; UniProt P01189 237-253, looked up, fragment) [β-endorphin (1-17)] | accelerate the extinction of the avoidance behaviour |
| β-endorphin (YGGFMTSEKSQTPLVTLFKNAIIKNAYKKGE; Beta-endorphin; UniProt P01189 237-267, looked up) [(59-89) fragments of β-LPH] | delays the extinction |
| a-endorphin | inhibit the extinction of the avoidance behaviour; also recorded: retarded |
| met-enkephalin (YGGFM; Met-enkephalin; UniProt P01189 237-241, looked up) [smaller peptide fragment derived from β-endorphin] | inhibit the extinction of the avoidance behaviour |
